These results are taken from US8697694B2, “Substituted pyridine and pyrimidine derivatives and their use in treating viral infections” (priority 2008, dated 2014).

A value given as a limit tells only on which side of the number the result lay.

One test has as its system HCV replicon cells. Briefly: Cell-based HCV replicon assay (replicon RNA level by real time PCR, Taqman). Particulars: Hepatitis C virus, 72 h, HCV replicon cells, harvested day 3, replicon RNA by real time PCR; given as number; read-out: EC90 (μM) range. As to the method: Assays Cell-Based HCV Replicon Assay
To measure cell-based anti-HCV activity of the compounds of the present invention, replicon cells were seeded at 5000 cells/well in 96-well collagen I-coated Nunc plates in the presence of the compound of the invention. Various concentrations of a compound of the invention, typically in 10 serial 2-fold dilutions, were added to the assay mixture, the starting concentration of the compound ranging from 25 μM to 1 μM. The final concentration of DMSO was 0.5%, fetal bovine serum was 10%, in the assay media. Cells were harvested on day 3 by the addition of 1× cell lysis buffer (Ambion cat #8721). The replicon RNA level was measured using real time PCR (Taqman assay). The amplicon was located in 5B. The PCR primers were: 5B.2F, ATGGACAGGCGCCCTGA (SEQ. ID NO. 1); 5B.2R, […] (SEQ. ID NO. 2); the probe sequence was FAM-labeled CACGCCATGCGCTGCGG (SEQ. ID NO. 3). GAPDH RNA was used as endogenous control and was amplified in the same reaction as NS5B (multiplex PCR) using primers and VIC-labeled probe recommended by the manufacturer (PE Applied Biosystem). The real-time RT-PCR reactions were run on ABI PRISM 7900HT Sequence Detection System using the following program: 48′C for 30 min, 95° C. for 10 min, 40 cycles of 95° C. for 15 sec, 60° C. for 1 min. The ΔCT values (CT5B-CTGAPDH) were plotted against the concentration of test compound and fitted to the sigmoid dose-response model using GraphPad PRISM software. EC50 was defined as the concentration of inhibitor necessary to achieve ΔCT=1 over the projected baseline; EC90 the concentration necessary to achieve ΔCT=3.2 over the baseline. Alternatively, to quantitate the absolute amount of replicon RNA, a standard curve was established by including serially diluted T7 transcripts of replicon RNA in the Taqman assay. All Taqman reagents were from PE Applied Biosystems. Such an assay procedure was described in detail in e.g. Malcolm et al., Antimicrobial Agents and Chemotherapy 50: 1013-1020 (2006).
HCV Replicon assay data for compounds of the invention that were tested was obtained using the above method. Calculated EC90 values are reported for each compound in Table I as a falling within the following ranges: […]
On the technique in general: A replicon is a self-replicating genome or part of one, used to study replication in cells.
For the compound `CCCOc1cc2cc(-c3c(C)nc(NCC4CC4)nc3N[C@@H]3C[C@H](CO)[C@@H](O)[C@H]3O)oc2c(C)n1` [Example 38], the EC90 was 0.25 µM.

Regarding `COCCNc1nc(C)c(-c2cc3cc(OC)ncc3o2)c(N[C@@H]2C[C@H](CO)[C@@H](O)[C@H]2O)n1` [Example 25], the EC90 is 0.8 µM.

Staying with this test, now noted: Hepatitis C virus, 72 h, HCV replicon cells, harvested day 3, replicon RNA by real time PCR; reported as range class; read-out: EC90 (μM) range.
`Cc1nc(N(C)C)nc(N[C@@H]2C[C@H](CO)[C@@H](O)[C@H]2O)c1-c1nc2ccccc2s1` [Example 313]: the EC90 was less than 0.5 µM.

`OC[C@H]1C[C@@H](Nc2nc(N3CCOCC3)nc(Cl)c2-c2nc3ccccc3s2)[C@H](O)[C@@H]1O` [Example 116]: the EC90 fell in the range of 0.5 to 5 µM. With `Cc1ccc2nc(-c3c(Cl)nc(N)nc3N[C@@H]3C[C@H](CO)[C@H]4OC(C)(C)O[C@H]43)oc2c1` [Example 190], the EC90 is more than 5 µM. Turning to `CNc1ccc2sc(-c3c(Cl)nc(N)nc3N[C@@H]3C[C@H](CO)[C@@H](O)[C@H]3O)nc2c1` [Example 194], the EC90 is less than 0.5 µM. On the same count and under the same terms, next, `COCCN(C)c1nc(Cl)c(-c2nc3ccccc3s2)c(N[C@@H]2C[C@H](CO)[C@@H](O)[C@H]2O)n1` [Example 202]: 0.5 to 5 µM.

The test is the same for the next values; noted with them: Hepatitis C virus, 72 h, HCV replicon cells, harvested on day 3, replicon RNA by real time PCR; calculated EC90 reported as range class; read-out: EC90 (μM) range.
As to `CCOCCNc1nc(C)c(-c2cc3cc(CC)ncc3o2)c(N[C@@H]2C[C@H](CO)[C@@H](O)[C@H]2O)n1` [Example 515], the EC90 was less than 0.5 µM. The same measure, in the same setting: for `COC(C)(C)CNc1nc(C)c(-c2nc3ccccc3s2)c(N[C@@H]2C[C@H](CO)[C@@H](O)[C@H]2O)n1` [Example 473] the value was less than 0.5 µM. As to `Cc1cccc(CNc2nc(C)c(-c3nc4ccccc4s3)c(N[C@@H]3C[C@H](CO)[C@@H](O)[C@H]3O)n2)c1` [Example 486], the EC90 was less than 0.5 µM. As to `CCCCCNc1nc(Cl)c(-c2cc3cc(C)ncc3o2)c(N[C@@H]2C[C@H](CO)[C@@H](O)[C@H]2O)n1` [Example 451], the EC90 is less than 0.5 µM. On to `CC(C)(C)CNc1nc(Cl)c(-c2nc3ccccc3s2)c(N[C@@H]2C[C@H](CO)[C@@H](O)[C@H]2O)n1` [Example 436], for which the EC90 is less than 0.5 µM.

On to `CCc1cc2cc(-c3c(C)nc(NCCC(F)(F)F)nc3N[C@@H]3C[C@H](CO)[C@@H](O)[C@H]3O)oc2cn1` [Example 521], for which the EC90 is less than 0.5 µM. Same read-out and setting: for `Cc1cc(CNc2nc(C)c(-c3nc4ccccc4s3)c(N[C@@H]3C[C@H](CO)[C@@H](O)[C@H]3O)n2)no1` [Example 492] the value was less than 0.5 µM; for `COc1cc(CNc2nc(C)c(-c3nc4ccccc4s3)c(N[C@@H]3C[C@H](CO)[C@H]4OC(C)(C)O[C@H]43)n2)cc(OC)c1OC` [Example 710], less than 0.5 µM. As to `CCc1cc2cc(-c3c(C)nc(NCc4nccs4)nc3N[C@@H]3C[C@H](CO)[C@@H](O)[C@H]3O)oc2cn1` [Example 342], the EC90 is less than 0.5 µM. The same measure, in the same setting: for `Cc1nc(NCc2cccc(F)c2)nc(N[C@@H]2C[C@H](CO)[C@@H](O)[C@H]2O)c1-c1nc2ccccc2s1` [Example 244] the value was less than 0.5 µM.

Staying with this test, now noted: Hepatitis C virus, 72 h, HCV replicon cells, replicon RNA level by real time PCR (Taqman), day 3; calculated EC90; read-out: EC90 (μM) range.
Turning to `Cc1nc(NCC(O)c2ccccc2)nc(N[C@@H]2C[C@H](CO)[C@@H](O)[C@H]2O)c1-c1nc2ccccc2s1` (some centres unmarked) [Example 1919], the EC90 was 0.5 to 5 µM.

The test is the same for the next values; noted with them: Hepatitis C virus, 72 h, HCV replicon cells, replicon RNA level by real time PCR (Taqman), harvested on day 3; calculated EC90 reported as range class; read-out: EC90 (μM) range.
On to `Cc1nc(NCC(F)(F)F)nc(N[C@H]2C[C@@H](CO)[C@H](O)[C@@H]2O)c1-c1nc2ccccc2s1` [Example 1060], for which the EC90 was more than 5 µM. Regarding `Cc1nc(NCc2ccco2)nc(N[C@@H]2C[C@H](CO)[C@@H](O)[C@H]2O)c1-c1nc2ccccc2s1` [Example 1110], the EC90 is less than 0.5 µM.

`Cc1nc(N(C)Cc2ccccc2)nc(N[C@@H]2C[C@H](CO)[C@@H](O)[C@H]2O)c1-c1nc2cnccc2s1` [Example 1313]: the EC90 is 0.5 to 5 µM. Turning to `Cc1nc(NCc2nccs2)nc(N[C@@H]2C[C@H](CO)[C@@H](O)[C@H]2O)c1-c1nc2cnccc2s1` [Example 541], the EC90 is less than 0.5 µM.

Take `COc1cc(OC)cc(C(C)Nc2nc(C)c(-c3nc4ccccc4s3)c(N[C@@H]3C[C@H](CO)[C@@H](O)[C@H]3O)n2)c1` (some centres unmarked) [Example 1209]: the EC90 is 0.5 to 5 µM.

With `Cc1nc(NCC2CC2)nc(N[C@@H]2C[C@H](CO)[C@@H](O)[C@H]2O)c1-c1cc2cc(OCC3CCC3)nc(C)c2o1` [Example 1059], the EC90 was more than 5 µM. `COc1cccc(OC)c1Nc1nc(C)c(-c2nc3ccccc3s2)c(N[C@@H]2C[C@H](CO)[C@@H](O)[C@H]2O)n1` [Example 1125]: the EC90 is more than 5 µM. As for `Cc1nc(NCc2ccco2)nc(N[C@@H]2C[C@H](CO)[C@H]3OC(C)(C)O[C@H]32)c1-c1nc2ccccc2s1` [Example 1109], the EC90 was 0.5 to 5 µM. `COc1ccc2sc(-c3c(C)nc(NCC(F)(F)F)nc3N[C@@H]3C[C@H](CO)[C@@H](O)[C@H]3O)nc2c1` [Example 1010]: the EC90 is 0.5 to 5 µM.

The test is the same for the next values; noted with them: Hepatitis C virus, 72 h, HCV replicon cells, replicon RNA level by real time PCR, harvested day 3; read-out: EC90 (μM) range.
For the compound `Cc1nc(NCC(F)(F)F)nc(NC2CCNCC2)c1-c1nc2ccccc2s1` [Example 1516], the EC90 lay within 0.5 to 5 µM. As to `Cc1nc(NCC(F)(F)F)nc(N[C@@H]2C[C@H](CN3CCCS3(=O)=O)[C@@H](O)[C@H]2O)c1-c1nc2ccccc2s1` [Example 1396], the EC90 was less than 0.5 µM.

With `Cc1nc(NCC(F)(F)F)nc(N[C@@H]2C[C@H](C(O)c3nccs3)[C@@H](O)[C@H]2O)c1-c1nc2ccccc2s1` (some centres unmarked) [Example 1639], the EC90 was less than 0.5 µM. For `Cc1nc(NCC(F)(F)F)nc(N[C@@H]2C[C@H](Cn3ccnn3)[C@@H](O)[C@H]2O)c1-c1nc2ccccc2s1` [Example 1538], the EC90 is less than 0.5 µM. In the case of `Cc1nc(NCC2CC2)nc(NC[C@@H]2CC2(CO)CO)c1-c1nc2ccccc2s1` [Example 1617], the EC90 was more than 5 µM.

Take `Cc1ccc([C@@H](C)Nc2nc(C)c(-c3nc4cnccc4s3)c(N[C@@H]3C[C@H](CS(C)(=O)=O)[C@@H](O)[C@H]3O)n2)cc1` [Example 1368]: the EC90 is less than 0.5 µM.

On to `Cc1nc(NCC(F)(F)F)nc(N[C@@H]2C[C@H](C(C)O)[C@@H](O)[C@H]2O)c1-c1nc2ccccc2s1` (single isomer, unassigned) [Example 1643], for which the EC90 was less than 0.5 µM. Regarding `CCCc1nccc2sc(-c3c(C)nc(NCC4CC4)nc3N[C@@H]3C[C@H](CO)[C@@H](O)[C@H]3O)nc12` [Example 1369], the EC90 was less than 0.5 µM.

As for `Cc1ccc([C@H](Nc2nc(C)c(-c3nc4c(C)nccc4s3)c(N[C@@H]3C[C@H](CO)[C@@H](O)[C@H]3O)n2)C2CC2)cc1` [Example 1362], the EC90 was less than 0.5 µM. In the case of `Cc1cccc([C@@H](C)Nc2nc(C)c(-c3nc4c(C)nccc4s3)c(N[C@@H]3C[C@H](CO)[C@@H](O)[C@H]3O)n2)c1` [Example 1525], the EC90 was less than 0.5 µM. Same read-out and setting: for `Cc1nc(NCC(F)(F)F)nc(N[C@@H]2C[C@H](CNS(=O)(=O)C3CC3)[C@@H](O)[C@H]2O)c1-c1nc2ccccc2s1` [Example 1513] the value was 0.5 to 5 µM; for `Cc1nc(NCc2c(F)cccc2F)nc(N[C@@H]2C[C@H](CO)[C@@H](O)[C@H]2O)c1-c1nc2cnccc2s1` [Example 1804], less than 0.5 µM.

For `Cc1nc(N)nc(N[C@@H]2C[C@H](CO)[C@@H](O)[C@H]2O)c1-c1nc2c(C)nccc2s1` [Example 1534], the EC90 was more than 5 µM.

`CCCc1nccc2sc(-c3c(C)nc(N[C@H](C)C4CC4)nc3N[C@@H]3C[C@H](CO)[C@@H](O)[C@H]3O)nc12` [Example 1346]: the EC90 is less than 0.5 µM. Consider `CO[C@@H]1[C@H](O)[C@@H](CO)C[C@H]1Nc1nc(NCC(F)(F)F)nc(C)c1-c1nc2ccccc2o1` [Example 1354], for which the concentration for an effect of 90% (EC90) was less than 0.5 µM. With `Cc1nc(NCC(F)(F)F)nc(NC[C@@H]2CC2(CO)CO)c1-c1nc2ccccc2s1` [Example 1618], the EC90 fell in the range of 0.5 to 5 µM. On the same count and under the same terms, for `Cc1nc(CN)nc(N[C@@H]2C[C@H](CO)[C@@H](O)[C@H]2O)c1-c1nc2ccccc2s1` [Example 1916] the value was more than 5 µM; for `Cc1nc(NS(C)(=O)=O)nc(N[C@@H]2C[C@H](CO)[C@@H](O)[C@H]2O)c1-c1nc2ccccc2s1` [Example 1917], more than 5 µM. As to `Cc1nc(NCC(F)(F)F)nc(N[C@@H]2C[C@H](C(C)(C)O)[C@@H](O)[C@H]2O)c1-c1nc2ccccc2s1` [Example 1640], the EC90 was in the range of 0.5 to 5 µM. With `Cc1nc(NCC(F)(F)F)nc(N[C@@H]2C[C@H](C)[C@@H](O)[C@H]2O)c1-c1nc2cnccc2s1` [Example 1633], the EC90 is less than 0.5 µM.

Broadly, the EC90 is the point of the concentration-response curve where the effect stands at 90%.
